Source: article PMC11695783 (Frontiers in Pharmacology, 2024)
Values joined by “and” are separate entries in the source; they are usually repeats but may differ in a detail not shown here. Equal values may be shown once.

Assays:
ICR strain mice = assay: Acute toxicity study, oral gavage; assay type: in vivo
Experimental: Twenty four male and female SPF-grade ICR strain mice were randomly divided into 6 groups of 4 mice each. Compound 16C was dissolved in DMSO at doses of 0, 8, 40, 200, 1,000, and 5,000 mg/kg and was administered to the mice by gavage.
Ten mice were gavaged with 5,000 mg/kg of compound 16C and another 10 mice were given DMSO orally as a control. The mice were fed and watered ad libitum. The animals’ appearance, diet, behavior, and death were observed and recorded for 14 consecutive days after administration. The LD50 was calculated as previously described ([Xiao et al., 2019]), and the test was repeated twice. To assess the acute toxicity of intramuscular administration in mice, we repeated the above experiment and replaced gavage with intramuscular injection.

[1] = Pharmacokinetic studies in mice (intravenous and intramuscular, plasma, HPLC-MS/MS); assay type: in vivo, BALB/c mice; design: AUClast / AUCall / AUCINF_obs / AUCINF_pred / AUCINFobs: concentration or dose not given beside the values; details: for F / Ka / Kel / T1/2ka / T1/2kel / Tmax / Cmax / AUC0-∞ / Cl / Vd / C0: mice; for AUCINFobs / AUClast / AUClast/AUCINFobs ratio / AUC0-t/AUC0-∞ ratio (AV): non-compartment model; for AUCINFobs / AUClast / AUClast/AUCINFobs ratio: individual mice; for AUC0-t/AUC0-∞ ratio (AV): mean
Experimental: Pharmacokinetic experimental procedures of compound 16C were measured according to previous reports with some modifications ([Wang et al., 2022]). In brief, BALB/c mice were divided into two groups of eight mice each; one group was injected intravenously and the other was injected intramuscularly with compound 16C at a dose of 10 mg/kg. The dose was based on previous studies of novel pleuromutilin derivatives ([Jin et al., 2019]; [Wang et al., 2022]). Meanwhile, the dose of tiamulin approved by the European Union for intramuscular administration is 10–20 mg/kg ([EMA, 1999]). The volume of the injection was 0.1 mL/10 g. The compound 16C formulation was a filtered solution in 5% DMSO, 5% Tween-80, and 90% normal saline. Blood was obtained from eight mice via the ocular venous plexus at 0.083, 0.167, 0.25, 0.334, 0.5, 0.75, 1, 1.5, 2, 3, 4, 6, 8, and 12 h following tail intravenous or thigh Intramuscular injection. A glass capillary with a diameter of 0.3 mm was inserted into the outer canthus of the mouse, and 200 μL blood was collected using a 1.5 mL anticoagulant centrifuge tube. The blood was centrifuged at 3,000 rpm for 10 min to obtain plasma. 100 μL of plasma was aspirated for drug concentration detection, and eight parallel samples from different mice were obtained at each time point.
All pharmacokinetic experimental samples and method validation samples were added with 4 times the volume of acetonitrile and shaken for 1 min, centrifuged at high speed at 13,000× g for 10 min, and the supernatants were taken and filtered to detect the drug concentration. Some samples with high concentrations were diluted to the linear range prior to analysis.
The extracted samples were analyzed using a high-performance liquid chromatography-tandem mass spectrometry (HPLC-MS/MS) system (Agilent, Santa Clara, CA, United States) 1200 HPLC and Applied Biosystems (Waltham, MA, United States) API 4000 mass spectrometer). HPLC-MS/MS analysis using a Zorbax Eclipse XDB-C18 (4.6 × 50 mm, 3.5 μm) column (Agilent). The mobile phase A (acetonitrile) and B (water) were applied as a gradient as follows: 0–3 min: 15%–95% A and maintain from 3 min to 5 min at 95% A. 5–5.1 min: 95%–15% A and maintain from 5.1 to 10 min at 15% A. Flow rate: 500 μL/min; column temperature: 30°C and injection volume: 4 μL. The electrospray ionization (ESI) source of the mass spectrometer was operated in […], with the following ion source parameters: ion spray voltage 4,500 V, collision gas 7 psi, ion source gas 1 55 psi, ion source gas 2 40 psi, curtain gas 20 psi, source temperature 600°C. The precursor ion m/z of Compound 16C was 633.3, and the product ions m/z were 272.0 (quantifier) 286.9 and 313.0. Declustering potentials (DP) were 140, 140, and 144 V, respectively; entrance potential (EP) was 10 V; collision energy (CE) was 55, 46, and 15 V, respectively; and collision cell exit potential (CXP) was 14 V.
[…] Pharmacokinetic parameters include time to maximum concentration (Tmax), maximum concentration (Cmax), the area under the plasma concentration–time curve (AUC0-∞), clearance rate (CL), the apparent volume of distribution (Vd), bioavailability (F), elimination half-life (T1/2kel) and absorption half-life (T1/2ka).

C=CC1(C)CC(OC(=O)CSc2ccc(NC(=O)Cc3ccc([N+](=O)[O-])cc3)cc2)C2(C)C(C)CCC3(CCC(=O)C32)C(C)C1O (centres unmarked) [compound 16C, 22–((4-((4-nitrophenyl)acetamido)phenyl)thio)deoxypleuromutilin]
deaths (pre-test) (ICR strain mice; gavage 8, 40, 200, 1,000, and 5,000 mg/kg in DMSO, observed 14 d): no deaths were observed
mouse deaths (ICR strain mice; oral gavage, single dose of 5,000 mg/kg, after 2 weeks): did not result in any mouse deaths
LD50 (ICR strain mice; oral gavage, single dose, mice, observed 14 d): > 5,000 mg/kg
symptoms observed (ICR strain mice; single dose of 5,000 mg/kg, oral gavage or intramuscular injection, mice rapidly recovered): anorexic symptoms
F ([1]; IM 10 mg/kg): 71.29 ± 19.34%
Ka ([1]; IM 10 mg/kg): 14.41 ± 7.76 h⁻¹
Kel ([1]; IM 10 mg/kg): 0.33 ± 0.07 h⁻¹
T1/2ka ([1]; IM 10 mg/kg): 3.6 ± 1.8 min
T1/2kel ([1]; IM 10 mg/kg): 2.20 h and 2.20 ± 0.52 h
Tmax ([1]; IM 10 mg/kg): 0.24 ± 0.09 h
Cmax ([1]; IM 10 mg/kg, n = 8): 500 ± 110 ng/mL
AUC0-∞ ([1]; IM 10 mg/kg, two-compartmental model): 1070 ± 230 ng·h/mL
T1/2ka ([1]; IM 10 mg/kg, listed as Compound 16C): 3.6 min
AUCINFobs ([1]; IM): 805.258 and 1373.07 and 1092.7 and 1076.67 and 1204.87 and 1450.76 and 1023.1 and 1087.9
AUClast ([1]; IM): 801.322 and 1354.01 and 1070.85 and 1055.33 and 1188.66 and 1432.45 and 925.896 and 1050.1
AUClast/AUCINFobs ratio ([1]; IM): 99.5113% and 98.6117% and 98.0006% and 98.0177% and 98.6551% and 98.7381% and 90.4989% and 96.5252%
AUC0-t/AUC0-∞ ratio (AV) ([1]; IM): 97.32% and 97.3198%
Cl ([1]; IV 10 mg/kg): 112 ± 27.8 mL/min/kg
Kel ([1]; IV 10 mg/kg): 0.41 ± 0.14 h⁻¹
Vd ([1]; IV 10 mg/kg): 3.55 ± 1.32 L/kg
C0 ([1]; IV 10 mg/kg, n = 8): 5580 ± 1250 ng/mL
AUC0-∞ ([1]; IV 10 mg/kg, two-compartmental model): 1560 ± 370 ng·h/mL
T1/2kel ([1]; IV 10 mg/kg, 10 mg/kg): 1.89 h and 1.89 ± 0.61 h
AUCINFobs ([1]; IV): 1454.8 and 1871.31 and 1501.72 and 1496.6 and 2594.18 and 1752.1 and 2317.09 and 1731
AUClast ([1]; IV): 1441.26 and 1869.35 and 1488.47 and 1490.96 and 2574.6 and 1734.84 and 2287.49 and 1712.29
AUClast/AUCINFobs ratio ([1]; IV): 99.0694% and 99.8954% and 99.1179% and 99.6229% and 99.2455% and 99.0149% and 98.7227% and 98.9189%
AUC0-t/AUC0-∞ ratio (AV) ([1]; IV): 99.20% and 99.2009%
AUC0-∞ ([1]; IM(10mg/kg), n=8): 1070 ± 230 ng·h/mL
Cmax ([1]; IM(10mg/kg), n=8): 500 ± 110 ng/mL
F ([1]; IM(10mg/kg), n=8): 71.29±19.34%
Ka ([1]; IM(10mg/kg), n=8): 14.41 ± 7.76 h⁻¹
Kel ([1]; IM(10mg/kg), n=8): 0.33 ± 0.07 h⁻¹
T1/2ka ([1]; IM(10mg/kg), n=8): 3.6 ± 1.8 min
T1/2kel ([1]; IM(10mg/kg), n=8): 2.20 ± 0.52 h
Tmax ([1]; IM(10mg/kg), n=8): 0.24 ± 0.09 h
AUC0-∞ ([1]; IV(10mg/kg), n=8): 1560 ± 370 ng·h/mL
C0 ([1]; IV(10mg/kg), n=8): 5580 ± 1250 ng/mL
Cl ([1]; IV(10mg/kg), n=8): 112 ± 27.8 mL/min/kg
Kel ([1]; IV(10mg/kg), n=8): 0.41 ± 0.14 h⁻¹
T1/2kel ([1]; IV(10mg/kg), n=8): 1.89 ± 0.61 h
Vd ([1]; IV(10mg/kg), n=8): 3.55 ± 1.32 L/kg
